# Source: paper PMC6268585, “Synthesis, Molecular Properties Prediction, and Anti-staphylococcal Activity of N-Acylhydrazones and New 1,3,4-Oxadiazole Derivatives” (Molecules, 2012)
# Where two headings read alike, the source gives them in different places.
# Assays:
# S. aureus 007 (MARSA) = test: MIC/MBC by broth microdilution, clinical strain 007; format: cell-based; settings: Staphylococcus aureus; for MIC: read-out: Minimum Inhibitory Concentration (MIC); for MBC: read-out: Minimum Bactericidal Concentration (MBC)
# Protocol: (§1) The effluxing strains were kindly provided by Professor Simon Gibbons (University of London, London, UK), and the MARSA strains were obtained from the culture collection of the Laboratory of Microorganism Genetics (Department of Molecular Biology, Federal University of Paraíba). All strains were maintained on blood agar base slants (BAB, Difco Laboratories Ltd., Brazil), and prior to use, the cells were grown overnight at 37 °C in brain heart infusion broth (BHI, Difco Laboratories Ltd., Detroit, MI, USA).
# (§2) The stock solutions of the compounds were prepared in DMSO which at its highest final concentration after dilution in the broth (4%) caused no inhibition of bacterial growth. The minimum inhibitory concentrations (MICs) of the compounds were determined in BHI by microdilution assay using a suspension of ca. 10^5 cfu/mL and a drug concentration range of 256 to 0.5 μg/mL (two-fold serial dilutions). The MIC is defined as the lowest concentration at which no growth is observed. The dye resazurin was used for better visualization of the bacterial growth. […] The minimum bactericidal concentration (MBC) is defined as the lowest drug concentration that gives no growth on the agar.
# [1] = test system: S. aureus SA-1199B (overexpresses the NorA efflux protein); test: MIC/MBC by broth microdilution, strain SA-1199B; format: cell-based; settings: Staphylococcus aureus; for MBC: read-out: Minimum Bactericidal Concentration (MBC); for MIC: read-out: Minimum Inhibitory Concentration (MIC)
# Protocol: as §1, §2
# S. aureus 05H (MARSA) = test: MIC/MBC by broth microdilution, clinical strain 05H; format: cell-based, Staphylococcus aureus; settings: for MBC / MIC: Staphylococcus aureus, 5 h; for MBC: read-out: Minimum Bactericidal Concentration (MBC)
# Protocol: as §1, §2
# [2] = test system: S. aureus RN-4220 (plasmid pUL5054, MsrA macrolide efflux protein); test: MIC/MBC by broth microdilution, strain RN-4220; format: cell-based; settings: Staphylococcus aureus; for MBC: read-out: Minimum Bactericidal Concentration (MBC); for MIC: read-out: Minimum Inhibitory Concentration (MIC)
# Protocol: as §1, §2
# [3] = test system: S. aureus IS-58 (TetK tetracycline efflux protein); test: MIC/MBC by broth microdilution, strain IS-58; format: cell-based; settings: Staphylococcus aureus; for MBC: read-out: Minimum Bactericidal Concentration (MBC); for MIC: read-out: Minimum Inhibitory Concentration (MIC)
# Protocol: as §1, §2
# [4] = strain 007, first number of cell MIC-MBC
# [5] = strain 007, second number of cell MIC-MBC
# [6] = read-out: Minimum Inhibitory Concentration (MIC)
Structure (SMILES),MIC (S. aureus 007 (MARSA); [4]) [µg/mL],MBC (S. aureus 007 (MARSA); [5]) [µg/mL],MBC [1] [µg/mL],MIC [1] [µg/mL],MBC (S. aureus 05H (MARSA)) [µg/mL],MIC (S. aureus 05H (MARSA); [6]) [µg/mL],melting point [°C],MBC [2] [µg/mL],MBC [3] [µg/mL],MIC [3] [µg/mL],MBC (S. aureus 007 (MARSA)) [µg/mL],MIC (S. aureus 007 (MARSA)) [µg/mL],MIC [2] [µg/mL],MIC (S. aureus 05H (MARSA)) [µg/mL],fold more potent than the standard chloramphenicol (S. aureus 05H (MARSA); strain MARSA (05H)) [fold]
"O=C(NN=Cc1ccc([N+](=O)[O-])o1)c1ccccc1 [Compound 4a, N′-((5-nitrofuran-2-yl)methylene)benzohydrazide]",8,8,16,16,8,8,–,–,–,–,–,–,–,–,–
"Cc1ccc(C(=O)NN=Cc2ccc([N+](=O)[O-])o2)cc1 [Compound 4b, 4-Methyl-N′-((5-nitrofuran-2-yl)methylene)benzohydrazide]",8,8,32,16,4,4,–,–,–,–,–,–,–,–,–
"COc1ccc(C2=NN(C(C)=O)C(c3ccc([N+](=O)[O-])o3)O2)cc1 (stereo not drawn) [Compound 5e, 1-(2-(5-Nitrofuran-2-yl)-5-(methoxyphenyl)-1,3,4-oxadiazol-3(2H)-yl)ethanone]",–,–,–,–,–,–,181 to 183,–,–,–,–,–,–,–,–
"CC(=O)N1N=C(c2ccc([N+](=O)[O-])cc2)OC1c1ccc([N+](=O)[O-])o1 (stereo not drawn) [Compound 5c, 1-(2-(5-Nitrofuran-2-yl)-5-(4-nitrophenyl)-1,3,4-oxadiazol-3(2H)-yl)ethanone]",16,16,32,32,8,8,188 to 190,32,–,–,–,–,–,–,–
"O=C(N[C@H](CO)[C@H](O)c1ccc([N+](=O)[O-])cc1)C(Cl)Cl [Chloramphenicol, chloramphenicol, reference compound]",–,–,64,64,128,64,–,128,128,64,128,64,64,64,–
CC(=O)N1N=C(c2ccc(Cl)cc2)OC1c1ccc([N+](=O)[O-])o1 (stereo not drawn) [Compound 5d],16,16,32,–,8,8,188 to 190,32,–,–,–,–,–,8,–
"CC(=O)N1N=C(c2ccc(C)cc2)OC1c1ccc([N+](=O)[O-])o1 (stereo not drawn) [Compound 5b, 1-(2-(5-Nitrofuran-2-yl)-5-(methylphenyl)-1,3,4-oxadiazol-3(2H)-yl)ethanone]",–,–,–,–,–,–,160 to 162,–,–,–,–,–,–,–,–
"CC(=O)N1N=C(c2ccccc2)OC1c1ccc([N+](=O)[O-])o1 (stereo not drawn) [Compound 5a, 1-(2-(5-Nitrofuran-2-yl)-5-phenyl-1,3,4-oxadiazol-3(2H)-yl)ethanone]",32,32,–,–,16,16,178 to 180,–,16,16,–,–,16,–,–
"O=C(NN=Cc1ccc([N+](=O)[O-])o1)c1ccc([N+](=O)[O-])cc1 [Compound 4c, 4-Nitro-N′-((5-nitrofuran-2-yl)methylene)benzohydrazide]",8,16,32,32,8,8,–,32,–,16,–,–,16,–,–
"O=C(NN=Cc1ccc([N+](=O)[O-])o1)c1ccc(Cl)cc1 [Compound 4d, 4-Chloro-N′-((5-nitrofuran-2-yl)methylene)benzohydrazide]",8,8,16,16,4,4,–,–,16,–,–,–,–,4,16
"COc1ccc(C(=O)NN=Cc2ccc([N+](=O)[O-])o2)cc1 [Compound 4e, 4-Methoxy-N′-((5-nitrofuran-2-yl)methylene)benzohydrazide]",8,8,16,16,4,4,–,16,–,–,–,–,16,–,–
